Experimental data published in patent US20210177879A1, “VITAMIN D RECEPTOR AGONIST” (Guanghzou University of Chinese Medicine, priority 2018, published 2021).

System: transplanted tumor of MB-231 pancreatic cancer cells
Experiment: Transplanted tumor of MB-231 pancreatic cancer cells in nude mice
Format: in vivo
Conditions: 2 mg/kg in combination with 5-fluorouracil at half dose (20 mg/kg), once a day; effect comparable to 5-fluorouracil alone 40 mg/kg
Experimental: The SMB-231 pancreatic cancer cells were thawed, and cultured in a changed medium after 24 hours. Medium preparation method: 6% serum, 1% of a bispecific antibody+a 1640 basal medium. After grown to confluent, the cells were digested and subcultured to expand the number of cells. When reached the required amount, the cells were digested by trypsin, centrifuged, and resuspended in PBS to prepare a cell suspension of 1×10^8 cells/ml. A part of the cell suspension was added with the monotropein, desacetyl asperulosidic acid, asperuloside, and asperulosidic acid respectively, and the inhibition rate (%) of tumor cell proliferation by each of these different compounds was examined.
Male adult nude mice, which had the body weights of 20-24 g, were purchased from Guangdong Medical Laboratory Animal Center. After 7 days of adaptive feeding of the animals, except for the blank group, the remaining animals were injected with 0.2 ml of a SMB-231 pancreatic cancer cell suspension in PBS at ventrodorsal and scapula sites of them, the response conditions of the animals were observed, and the body weights of the animals were determined once a week. After 2 weeks of observation, the animals were grouped into the following groups according to tumor size: a blank group; a model group; a 5-fluorouracil control group (5-Full, 40 mg/kg); monotropein+5-fluorouracil (2 mg/kg monotropein+20 mg/kg 5-fluorouracil), desacetyl asperulosidic acid+5-fluorouracil (2 mg/kg desacetyl asperulosidic acid+20 mg/kg 5-fluorouracil), asperuloside+5-fluorouracil (2 mg/kg asperuloside+20 mg/kg 5-fluorouracil), asperulosidic acid+5-fluorouracil (2 mg/kg asperulosidic acid+20 mg/kg 5-fluorouracil), these groups being labeled as: Mo, As, Aa, Da. Each group included 8 animals; and administration was conducted once a day.
The status, death conditions, and eating and drinking conditions of the animals were observed daily. The body weights of the animals were determined once a week and the tumor size of the animals was determined every 4 days. The tumor volume of the animals was determined by using a vernier caliper. After 1 month of administration, the animals were sacrificed after blood was sampled from the orbit thereof, and the tumor was separated and weighed.

Structure (SMILES): O=C(O)C1=CO[C@@H](O[C@@H]2O[C@H](CO)[C@@H](O)[C@H](O)[C@H]2O)[C@H]2[C@@H]1C=C[C@]2(O)CO [monotropein]
- tumor proliferation in SMB-231 tumor-bearing mice: significantly inhibit tumor proliferation
